# Measured values as given in publication PMC12081876, “Identification of PTGR2 inhibitors as a new therapeutic strategy for diabetes and obesity” (EMBO Molecular Medicine, 2025).
# Several values for one entry are separate records, joined by “and”; a condition that tells them apart may be missing. Equal values may be shown once.
# Experiments:
# [1] = tested on: HFHSD-fed obese C57BL6/J mice; assay: Insulin tolerance test (ITT); format: in vivo, mouse; design: Figure 2I Average (glucose, ITT) / ITT / ITT glucose, Average / Blood glucose during insulin tolerance test (Figure 5M), Average: unit not given here; details: for ITT: individual mice
# Procedure: (§1) Glucose tolerance was evaluated by the oral (OGTT) and intraperitoneal glucose tolerance test (ipGTT) after a 6-h fast. For the OGTT, glucose water (1 mg/g) was given by oral gavage, and tail blood glucose was measured with a glucometer (ACCU-CHEK Performa, Roche) at 0, 15, 30, 45, 60, 90, and 120 min. For the ipGTT, tail blood glucose was measured at 0, 15, 30, 45, 60, 90, and 120 min after intraperitoneal injection of glucose water (1 mg/g). For the insulin tolerance test (ITT), mice were fasted for 4 h and then injected intraperitoneally with 1 U/kg of insulin (Humulin R, Eli Lilly). Tail blood glucose was measured at 0, 15, 30, 45, 60, 90, 120, and 180 min.
# [2] = tested on: differentiated 3T3-L1 adipocytes; assay: Insulin-stimulated glucose uptake assay by (3H)2-deoxyglucose; format: cell-based, mouse; design: insulin-stimulated glucose uptake, Fig 1J replicates / Figure 5E raw value, insulin-stimulated glucose uptake (replicates): unit not given here
# [3] = tested on: HFHSD-fed obese C57BL6/J mice; assay: Intraperitoneal glucose tolerance test (ipGTT); format: in vivo, mouse; design: Figure 2H Average (glucose, ipGTT) / ipGTT / ipGTT glucose, Average / Blood glucose during glucose tolerance test (Figure 5L), Average: unit not given here; details: for ipGTT: individual mice
# Procedure: as §1
# [4] = tested on: HFHSD-fed obese C57BL6/J mice; assay: Body weight / diet-induced obesity in HFHSD-fed mice; format: in vivo, mouse; details: 40 mg/kg/day ip; for Body weight, individual mice / Body weight, Average: in g (unit assumed)
# [5] = 40 mg/kg/day ip, 3 weeks, HFHSD-fed mice, vs vehicle
structure (smiles),measurement,setting,value
"CCCCCC(=O)/C=C/[C@H]1[C@H](O)CC(=O)[C@@H]1C/C=C\CCCC(=O)O [15-keto-PGE2, 15-keto-prostaglandin E2]",insulin sensitivity (ITT),[1]; [5],markedly improved
same,ITT,[1]; 0 min,113 and 114 and 91 and 147 and 149 and 115 and 92 and 118 and 94 and 110 and 98 and 125
same,ITT,[1]; 15 min,59 and 78 and 70 and 67 and 83 and 90 and 111 and 75 and 45 and 63 and 82 and 49 and 92
same,ITT,[1]; 30 min,56 and 79 and 54 and 62 and 52 and 71 and 66 and 57 and 43 and 75 and 46
same,ITT,[1]; 45 min,34 and 60 and 37 and 51 and 42 and 62 and 56 and 47 and 44 and 30 and 54 and 50 and 29
same,ITT,[1]; 60 min,23 and 57 and 21 and 58 and 46 and 66 and 49 and 34 and 31 and 26 and 51 and 53 and 50 and 39 and 29
same,ITT,[1]; 90 min,22 and 65 and 25 and 41 and 63 and 57 and 31 and 37 and 56 and 38 and 49 and 24 and 27
same,ITT,[1]; 120 min,46 and 53 and 25 and 39 and 54 and 62 and 47 and 31 and 70 and 51 and 36
same,ITT,[1]; 180 min,98 and 66 and 25 and 65 and 84 and 62 and 77 and 73 and 54 and 78 and 69 and 82
same,"Figure 2I Average (glucose, ITT)",[1]; time 0,112.333
same,"Figure 2I Average (glucose, ITT)",[1]; time 15,74.4667
same,"Figure 2I Average (glucose, ITT)",[1]; time 30,60.8
same,"Figure 2I Average (glucose, ITT)",[1]; time 45,46.2667
same,"Figure 2I Average (glucose, ITT)",[1]; time 60,42.2
same,"Figure 2I Average (glucose, ITT)",[1]; time 90,41.1333
same,"Figure 2I Average (glucose, ITT)",[1]; time 120,45.6667
same,"Figure 2I Average (glucose, ITT)",[1]; time 180,67.6667
same,"insulin-stimulated glucose uptake, Fig 1J replicates",[2]; 15kPGE2 1,1.328 and 1.441 and 0.8491 and 1.4653
same,"insulin-stimulated glucose uptake, Fig 1J replicates",[2]; 15kPGE2 5,3.521 and 4.331 and 2.858 and 2.553
same,"insulin-stimulated glucose uptake, Fig 1J replicates",[2]; 15kPGE2 10,4.083 and 4.476 and 3.119 and 3.373
same,insulin-stimulated glucose uptake,[2]; differentiated 3T3-L1 adipocytes,increased insulin-stimulated glucose uptake in differentiated 3T3-L1 adipocytes dose-dependently
same,glucose tolerance (ipGTT),[3]; [5],markedly improved
same,ipGTT,[3]; 0 min,105 and 98 and 102 and 88 and 151 and 155 and 75 and 78 and 93 and 125 and 111
same,ipGTT,[3]; 15 min,222 and 226 and 190 and 213 and 239 and 234 and 324 and 231 and 152 and 188 and 183 and 251 and 245 and 276
same,ipGTT,[3]; 30 min,262 and 264 and 155 and 201 and 221 and 211 and 273 and 247 and 125 and 124 and 200 and 186 and 235 and 231 and 280
same,ipGTT,[3]; 45 min,229 and 251 and 162 and 188 and 184 and 199 and 252 and 215 and 109 and 112 and 132 and 155 and 211 and 175 and 213
same,ipGTT,[3]; 60 min,262 and 225 and 130 and 171 and 177 and 179 and 196 and 206 and 110 and 120 and 89 and 133 and 182 and 155 and 205
same,ipGTT,[3]; 90 min,208 and 191 and 114 and 152 and 166 and 143 and 171 and 181 and 88 and 108 and 112 and 151 and 124
same,ipGTT,[3]; 120 min,166 and 121 and 99 and 122 and 118 and 90 and 69 and 80 and 108 and 131 and 100 and 135
same,"Figure 2H Average (glucose, ipGTT)",[3]; time 0,108.467
same,"Figure 2H Average (glucose, ipGTT)",[3]; time 15,223.8
same,"Figure 2H Average (glucose, ipGTT)",[3]; time 30,214.333
same,"Figure 2H Average (glucose, ipGTT)",[3]; time 45,185.8
same,"Figure 2H Average (glucose, ipGTT)",[3]; time 60,169.333
same,"Figure 2H Average (glucose, ipGTT)",[3]; time 90,144.2
same,"Figure 2H Average (glucose, ipGTT)",[3]; time 120,109.267
same,diet-induced obesity (body weight),"[4]; 3 weeks, HFHSD-fed mice, vs vehicle",protected against diet-induced obesity
same,"Body weight, individual mice","[4]; treatment day 1, 40 mg/kg/day",31.70 and 29.90 and 31.10 and 26.25 and 27.55
same,"Body weight, Average",[4]; treatment day 1,29.83
same,"Body weight, individual mice","[4]; treatment day 2, 40 mg/kg/day",31.55 and 28.75 and 30.85 and 26.15 and 27.85
same,"Body weight, Average",[4]; treatment day 2,29.61
same,"Body weight, Average","[4]; treatment day 3, 40 mg/kg/day",29.4
same,"Body weight, individual mice","[4]; treatment day 3, 40 mg/kg/day",31.60 and 29.00 and 30.75 and 25.90 and 26.35
same,"Body weight, individual mice","[4]; treatment day 4, 40 mg/kg/day",32.50 and 27.95 and 30.90 and 25.75 and 26.90
same,"Body weight, Average",[4]; treatment day 4,29.42
same,"Body weight, individual mice","[4]; treatment day 5, 40 mg/kg/day",32.50 and 26.45 and 30.70 and 25.35 and 26.25
same,"Body weight, Average",[4]; treatment day 5,29.42
same,"Body weight, individual mice","[4]; treatment day 6, 40 mg/kg/day",32.60 and 26.45 and 30.00 and 25.75
same,"Body weight, Average",[4]; treatment day 6,29.49
same,"Body weight, individual mice","[4]; treatment day 7, 40 mg/kg/day",32.60 and 26.55 and 30.10 and 26.40
same,"Body weight, Average",[4]; treatment day 7,29.61
same,"Body weight, individual mice","[4]; treatment day 8, 40 mg/kg/day",31.90 and 27.35 and 30.10 and 25.05
same,"Body weight, Average",[4]; treatment day 8,29.92
same,"Body weight, individual mice","[4]; treatment day 9, 40 mg/kg/day",31.40 and 28.05 and 30.70 and 25.90
same,"Body weight, Average",[4]; treatment day 9,29.95
same,"Body weight, individual mice","[4]; treatment day 10, 40 mg/kg/day",30.70 and 28.45 and 30.20 and 26.55 and 27.35
same,"Body weight, Average",[4]; treatment day 10,29.99
same,"Body weight, individual mice","[4]; treatment day 11, 40 mg/kg/day",31.60 and 28.55 and 30.40 and 27.50 and 26.90
same,"Body weight, Average",[4]; treatment day 11,30.05
same,"Body weight, Average","[4]; treatment day 12, 40 mg/kg/day",30.2
same,"Body weight, individual mice","[4]; treatment day 12, 40 mg/kg/day",31.60 and 29.05 and 30.95 and 27.45 and 27.10
same,"Body weight, individual mice","[4]; treatment day 13, 40 mg/kg/day",31.75 and 30.2 and 31.6 and 28.55 and 28.05
same,"Body weight, Average",[4]; treatment day 13,30.36
same,"Body weight, individual mice","[4]; treatment day 14, 40 mg/kg/day",31.65 and 30.50 and 31.35 and 28.35 and 27.80
same,"Body weight, Average",[4]; treatment day 14,30.49
same,"Body weight, individual mice","[4]; treatment day 15, 40 mg/kg/day",31.70 and 29.55 and 30.65 and 27.45 and 27.00
same,"Body weight, Average",[4]; treatment day 15,30.22
same,"Body weight, individual mice","[4]; treatment day 16, 40 mg/kg/day",31.85 and 29.40 and 30.30 and 27.00 and 26.50
same,"Body weight, Average",[4]; treatment day 16,30.12
same,"Body weight, individual mice","[4]; treatment day 17, 40 mg/kg/day",32.75 and 29.85 and 31.95 and 27.85 and 26.80
same,"Body weight, Average",[4]; treatment day 17,30.56
same,"Body weight, individual mice","[4]; treatment day 18, 40 mg/kg/day",31.80 and 29.75 and 32.10 and 27.75
same,"Body weight, Average",[4]; treatment day 18,30.63
same,"Body weight, individual mice","[4]; treatment day 19, 40 mg/kg/day",33.15 and 31.50 and 32.00 and 28.35 and 27.70
same,"Body weight, Average",[4]; treatment day 19,30.65
same,"Body weight, individual mice","[4]; treatment day 20, 40 mg/kg/day",33.10 and 30.85 and 31.55 and 27.75 and 27.15
same,"Body weight, Average",[4]; treatment day 20,30.69
same,"Body weight, individual mice","[4]; treatment day 21, 40 mg/kg/day",32.55 and 30.9 and 31.6 and 28 and 28.15
same,"Body weight, Average",[4]; treatment day 21,30.73
